The nature of data set [1]: LogP of fragrance raw materials (partition coefficient between octanol and water). The class given is physicochemical.
The nature of data set [2]: Swelling of micro-capsules with single fragrance raw materials (mass fraction in swollen micro-capsule). It is filed as physicochemical. As to conditions: micro-capsules of Example 4 swelled with excess raw material, 1 to 3 days. The text has this:
The capsules were allowed to swallow with an excess of the model-perfume (see Example 1) during 1 to 3 days. The swelled micro-particles were then separated from the remaining perfume by filtration and washed with ethanol. This experiment was repeated for various raw materials having various chemical functionalities or various polarities (i.e. LogP, P being the partition coefficient between octanol and water).

The mark [3] stands for this setting: P = partition coefficient between octanol and water, read-out: LogP.

The record followed here is patent publication US7279542B2, “Polymeric particles and fragrance delivery systems” (Firmenich SA, priority 2003, dated 2007).

Like-named read-outs stand apart in the source and are kept apart here.

In general, logP refers to the decadic logarithm of the partition coefficient of the neutral form, usually between octanol and water. Turning to `CC(C)=CCC/C(C)=C/CO` [Geraniol], the logP in data set [1] (setting [3]) came to 3.59. Besides, the “Fragrance mass fraction in the final swollen micro-capsule weight [%]” value (shortened to “Fragrance mass fraction … [%]”) in data set [2] was 36.2%.
In data set [1], `O=C1CCCCCCCCC/C=C/CCCO1` [Habanolide ®, pentadecenolide] gave a logP of 5.37. Besides, the “Fragrance mass fraction … [%]” value in data set [2] is 50.3%.
For the compound `CC(=O)OCc1ccccc1` [Benzyl acetate], the logP in data set [1] (setting [3]) is 1.57. Also, the “Fragrance mass fraction … [%]” value in data set [2] is reported as 49.8%.
On the same counts, the results for `CCCCCCOC(=O)c1ccccc1O` [Hexyl salicylate] are 4.91 and 50.7%.
